# According to patent publication US20260226084A1, “DUAL RAF AND TUBULIN INHIBITORS AND METHODS OF USE THEREOF” (Deciphera Pharmaceuticals, LLC, priority 2023, published 2026):
# Read-outs that look alike come from different tables or passages of the source.
# Assays:
# [1] = tested on: Pa16c cells; experiment: Pa16c Cell Proliferation Assay; type: cell-based; conditions: Table 2, read-out: Inhibition of cell proliferation in Pa16c (IC50 class)
# Outline: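 Proliferation read-out: resazurin fluorescence (540 nm excitation, 600 nm emission) after an extra 18 to 24 h. Before that, compound dilution series (triplicate) stayed on 750 Pa16c cells/well in complete DMEM/10% FBS for 67 to 72 h at 37° C. IC50 values derived from the curves.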
# [2] = tested on: HCT-116 cells; experiment: HCT-116 Cell Proliferation Assay; type: cell-based; conditions: Homo sapiens
# Outline: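 IC50 values come from resazurin fluorescence (540 nm excitation, 600 nm emission) added for 4 to 5 h after compound treatment. Treatment: serially diluted compound in triplicate on 375 HCT-116 cells per well in complete McCoy's 5A/10% FBS, 67 to 72 hours, 37 °C, 5% CO2.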
# [3] = biological target: T1, C-Raf kinase (SEQ ID NO: 2) (Homo sapiens, UniProt P04049, Y340D/Y341D); experiment: Biochemical Assay for C-Raf (coupled pyruvate kinase/lactate dehydrogenase assay)
# T1 construct: C-Raf residues 306-end; Y340D, Y341D with; GST (N); purchased Sigma
# [4] = tested on: MiaPaca-2 cells; experiment: MiaPaca-2 Cell Proliferation Assay; type: cell-based; conditions: Homo sapiens
# Outline: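 Viability was read as resazurin fluorescence (540 nm excitation, 600 nm emission) after 5–6 h with dye. Compounds were tested as serial dilutions in triplicate, with IC50 derived from the dose–response.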
# [5] = biological target: T2, B-Raf kinase (SEQ ID NO: 1) (Homo sapiens, UniProt P15056); experiment: Biochemical Assay for B-Raf (coupled pyruvate kinase/lactate dehydrogenase assay)
# T2 construct: GST (N); purchased Sigma
# [6] = tested on: HPAF-II cells; experiment: HPAF-II Cell Proliferation Assay; type: cell-based; conditions: Homo sapiens, HPAF-II
# Outline: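 Viability read-out was resazurin fluorescence (540 nm excitation, 600 nm emission), developed 18–24 h after a 115–120 h compound exposure of 750 HPAF-II cells per well in MEM/10% FBS at 37 °C. Compound was tested as a serial dilution in triplicate, and IC50 values were calculated.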
# [7] = biological target: T3, Porcine Brain Tubulin (Sus scrofa, UniProt P02550+P02554); experiment: Biochemical Tubulin Polymerization Assay; conditions: Table 3; Tubulin Biochemical assay; read-out: Tubulin Biochem (IC50 class)
# T3 construct: Porcine Brain Tubulin (T240); purchased Cytoskeleton, Inc T240; BK011P; host or cells: porcine brain (tissue-purified)
# [8] = HCT-116, HCT-116 cells, Table 2, read-out: Inhibition of cell proliferation in HCT-116 (IC50 class)
# [9] = HCT-116, Table 3, read-out: HCT-116 (IC50 class)
# [10] = 1 mM ATP, read-out: CRAF (inhibition of biochemical activity, IC50)
# [11] = Table 3, read-out: CRAF (IC50 class)
# [12] = MIA PaCa-2, MiaPaca-2 cells, Table 2, read-out: Inhibition of cell proliferation in MiaPaca-2 (IC50 class)
# [13] = MIA PaCa-2, Table 3, read-out: MiaPaca-2 (IC50 class)
# [14] = 1 mM ATP, read-out: BRAF (inhibition of biochemical activity, IC50)
# [15] = Table 3, read-out: BRAF (IC50 class)
# [16] = HPAF-II cells, Table 2, read-out: Inhibition of cell proliferation in HPAF-II (IC50 class)
# [17] = Table 3, read-out: HPAF-II (IC50 class)
# T2 sequence (P15056 416-766): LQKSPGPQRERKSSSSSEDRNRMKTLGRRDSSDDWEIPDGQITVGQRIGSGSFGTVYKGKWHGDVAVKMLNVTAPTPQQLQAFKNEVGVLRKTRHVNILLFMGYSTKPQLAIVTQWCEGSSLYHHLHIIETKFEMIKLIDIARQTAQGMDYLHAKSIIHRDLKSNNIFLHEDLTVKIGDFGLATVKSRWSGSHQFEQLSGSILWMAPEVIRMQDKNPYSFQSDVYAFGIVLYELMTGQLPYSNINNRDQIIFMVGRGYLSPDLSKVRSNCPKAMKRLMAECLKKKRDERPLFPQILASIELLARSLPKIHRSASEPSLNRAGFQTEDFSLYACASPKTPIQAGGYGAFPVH
# T1 sequence (P04049 307-648 Y340D/Y341D): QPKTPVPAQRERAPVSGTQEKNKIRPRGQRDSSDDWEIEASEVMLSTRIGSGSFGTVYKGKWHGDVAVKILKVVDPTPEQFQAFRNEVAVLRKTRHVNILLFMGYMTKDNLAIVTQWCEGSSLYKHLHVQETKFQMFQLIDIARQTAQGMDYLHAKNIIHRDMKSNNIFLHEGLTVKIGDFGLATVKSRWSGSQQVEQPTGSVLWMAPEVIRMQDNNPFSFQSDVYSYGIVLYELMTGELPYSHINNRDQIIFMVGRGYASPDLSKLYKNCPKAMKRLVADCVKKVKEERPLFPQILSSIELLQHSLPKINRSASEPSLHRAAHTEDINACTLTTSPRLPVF
# T3 sequence (P02550 whole entry): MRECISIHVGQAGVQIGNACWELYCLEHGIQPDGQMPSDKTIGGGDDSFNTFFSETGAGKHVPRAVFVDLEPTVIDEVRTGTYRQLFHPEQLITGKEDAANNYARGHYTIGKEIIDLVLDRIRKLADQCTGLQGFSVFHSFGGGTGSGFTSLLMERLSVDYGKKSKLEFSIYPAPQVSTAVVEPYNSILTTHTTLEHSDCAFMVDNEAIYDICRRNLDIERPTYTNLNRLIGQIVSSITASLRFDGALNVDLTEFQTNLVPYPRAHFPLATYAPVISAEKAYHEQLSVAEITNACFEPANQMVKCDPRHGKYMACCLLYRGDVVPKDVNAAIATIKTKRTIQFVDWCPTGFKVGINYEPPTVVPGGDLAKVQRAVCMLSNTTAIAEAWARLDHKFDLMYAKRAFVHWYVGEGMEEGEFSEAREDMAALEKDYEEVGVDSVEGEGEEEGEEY
# T3 sequence (P02554 whole entry): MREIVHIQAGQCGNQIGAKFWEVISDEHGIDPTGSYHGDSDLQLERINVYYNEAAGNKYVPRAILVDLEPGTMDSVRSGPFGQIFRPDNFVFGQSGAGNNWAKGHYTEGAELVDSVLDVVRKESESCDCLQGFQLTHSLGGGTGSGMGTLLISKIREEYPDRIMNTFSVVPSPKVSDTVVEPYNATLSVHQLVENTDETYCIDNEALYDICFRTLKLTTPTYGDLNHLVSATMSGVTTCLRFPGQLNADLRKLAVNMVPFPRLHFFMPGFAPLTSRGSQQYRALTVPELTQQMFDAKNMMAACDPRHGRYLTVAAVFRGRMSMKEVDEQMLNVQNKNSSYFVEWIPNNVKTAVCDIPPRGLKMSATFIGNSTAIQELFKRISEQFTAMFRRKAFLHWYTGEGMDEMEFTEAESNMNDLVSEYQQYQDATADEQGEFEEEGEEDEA
Structure (SMILES),IC50 [1] [nM],"IC50 [2, 8] [nM]","IC50 [2, 9] [nM]","IC50 [3, 10] [nM]","IC50 [3, 11] [nM]","IC50 [4, 12] [nM]","IC50 [4, 13] [nM]","IC50 [5, 14] [nM]","IC50 [5, 15] [nM]","IC50 [6, 16] [nM]","IC50 [6, 17] [nM]",IC50 [7] [nM]
"Cc1ccc(NC(=O)c2cc(C#N)cnn2)cc1-c1ccnc(-c2ccnc(NC(=O)C3CC3)c2)c1 [Example 96, 5-cyano-N-(3-(2′-(cyclopropanecarboxamido)-[2,4′-bipyridin]-4-yl)-4-methylphenyl)pyridazine-3-carboxamide]",1000 to 10000,100 to 500,100 to 500,< 100,< 100,< 100,< 100,< 100,< 100,100 to 500,100 to 500,3000 to 20000
Cc1ccc(NC(=O)c2cc(C(F)(F)F)cnn2)cc1-c1ccnc(-c2ccnc(NC(=O)C3CC3)c2)c1 [Example 67],< 100,< 100,< 100,< 100,< 100,< 100,< 100,< 100,< 100,< 100,< 100,< 3000
Cc1ccc(NC(=O)c2cnc(C(F)(F)F)nc2)cc1-c1ccnc(-c2ccnc(NC(=O)C3CC3)c2)c1 [Example 17],< 100,100 to 500,100 to 500,< 100,< 100,100 to 500,100 to 500,100 to 500,100 to 500,< 100,< 100,3000 to 20000
Cc1ccc(NC(=O)c2cc(C3CC3)cnn2)cc1-c1ccnc(-c2ccnc(NC(=O)C3CC3)c2)c1 [Example 43],< 100,< 100,< 100,< 100,< 100,< 100,< 100,< 100,< 100,100 to 500,100 to 500,3000 to 20000
Cc1ccc(NC(=O)c2cc(C(C)(F)F)cnn2)cc1-c1ccnc(-c2ccnc(NC(=O)C3CC3)c2)c1 [Example 57],100 to 500,< 100,< 100,< 100,< 100,< 100,< 100,< 100,< 100,< 100,< 100,< 3000
